One series deals with human iPSC line 1383D6. Kind of series: Effect of cytochalasin B on platelet-based mCherry mRNA delivery. The conditions noted are these: 100 nM or 350 nM. Type of series: cell-based. The protocol: The effects of cytochalasin B (CytoB), which is an inhibitor of tunneling nanotubes, on platelet-based mRNA delivery were investigated in the exemplary human iPSC line 1383D6. The cells were plated at a density of 2×10^5 cells/well in a 12 well plate and grown overnight at 37° C. with 5% CO2. Platelets were loaded with 5 μg of mCherry mRNA using Lipofectamine MessengerMax as described herein. The mRNA loaded platelets were further prepared by centrifuging at 1800×g at room temperature for 10 min, washing with EBM, and resuspending in fresh 600 μL culture media. Then, 100 μL of the mRNA loaded platelets (corresponding to 0.8 μg mRNA/well) containing 100 nM or 350 nM CytoB (or without CytoB as control) was added to the cells in a total volume of 1 mL culture media. After 24 hour incubation at 37° C. with 5% CO2, fluorescent images were obtained with a BZ-X810 fluorescence microscope (Keyence) using a TRITC filter. Subsequently, the cells were harvested using 0.25% trypsin-EDTA solution, washed twice with PBS, and centrifuged. The cell pellet was dispersed using PBS containing 3% FBS, stained with LIVE/DEAD Fixable Green Dead Cell Stain Kit (Thermo Fisher Scientific) according to manufacturer's instructions. […] Relative value in mean fluorescence intensity (MFI) was calculated with respect to the control samples without CytoB.

The next series concerns HUVECs. Kind of series: Co-culture of MEG-01-GFP megakaryocyte-derived GFP-positive platelets with HUVECs (protein delivery). It is filed as cell-based, human. Conditions: 80 μM concentration. On the procedure:
In addition to nucleic acids such as mRNA, modified platelets were used to deliver protein. MEG-01 megakaryocytes were transduced with pLV-GFP lentivirus to induce expression of GFP (MEG-01-GFP). These megakaryocytes were cultured to produce GFP-positive platelets (FIG. 4A), which were co-cultured with HUVECs.
In a separate experiment, GFP-positive platelets were co-cultured with mCherry-expressing HUVECs.

A further series deals with 293T cells. The series can be described thus: Screening of anchoring protein HA fusion constructs, PE anti-HA flow cytometry. It is filed as cell-based. Conditions: live cells, gated on eGFP. From the text: FIG. 15A depicts exemplary constructs used for the determination and identification of cell surface targeting ligands, which can be, for example, expressed on platelets to increase cell type specificity. The exemplary constructs involve custom TetOn expression vectors with left/right homologue arms to AAVS1. TetOn allows for conditional expression of targeting ligands or epitopes fused to the N- and C-termini of platelet cell surface markers (e.g. CD41, CD42a, CD61). Downstream cGFP through a P2A linker allows for successful identification of cells expressing the fusion vector. FIG. 15B depicts flow cytometry plots of 293T cells transfected with the exemplary N- or C-terminal fusion vectors depicted in FIG. 15A using CD41, CD42a, and CD61. Live cells were stained with a PE anti-HA fluorescent antibody and gated upon cGFP expression during flow cytometry analysis. PE fluorescence is shown against control (untransfected) 293T cells stained with PE anti-HA (shaded).
(In general: Flow cytometry measures light scatter and fluorescence of single cells or particles in a stream.)

Consider `C=C1[C@@H](C)[C@H]2[C@H](Cc3ccccc3)NC(=O)[C@]23OC(=O)/C=C/[C@H](O)CCC[C@@H](C)C/C=C/[C@H]3[C@@H]1O` [CytoB, cytochalasin B], for which the “effect on platelet-based mRNA delivery” value with human iPSC line 1383D6 is “Prevents Platelet-Based mRNA Delivery”. The “cell death (MFI of green dead cell stain)” value in the series on human iPSC line 1383D6 (24 hour) was “does not cause cell death”. For `O=C(N/N=C/c1ccc(O)c(O)c1)c1cc2ccccc2cc1O` [dynasore], the “transformation of HUVECs by platelets treated with inhibitor” value in the series on HUVECs is recorded as “unable to transform HUVECs”. “C-terminal fusion of CD61 with an HA epitope: TetOn expression construct of platelet surface marker CD61 fused C-terminally to an HA epitope, with P2A eGFP”: the “exposure of HA epitope on cell surface” value with 293T cells is recorded as “robust exposure of the HA epitope on the 293T cell surface”; in the series with 293T cells (listed as C-terminal CD61-HA fusion construct) it was “results in anti-HA fluorescence on the cell surface”.
